Source: patent US8399429B2, “Uracyl cyclopropyl nucleotides” (Janssen Products, LP, priority 2008, dated 2013)

Experiments:
Huh7-CMV-Luc cells = assay: Cellular toxicity in Huh7-CMV-Luc replicon assay; assay type: cell-based; conditions: three days incubation, Luc activity, read-out: CC50 (μM) (Huh-7)
Experimental: (§1) Cellular toxicity was determined in the Huh7-CMV-Luc replicon assay. Replicon cells (2500 cells/well), stably transformed with a luciferase reporter gene under control of the cytomegalovirus (CMV) constitutive promotor, were cultured in the presence or absence of test compound concentrations. After three days of incubation at 37° C. in a humidified 5% CO2 atmosphere, cell proliferation was quantified by measuring the Luc activity, and expressed as CC50 values (cytotoxicity, 50% inhibitory concentration of cell growth). Tests were performed in 384-well plates.

[1] = test system: HCV replicon (Huh-7 luc/neo, NS3-NS5B of HCV type 1b); assay: HCV replicon assay (Huh-Luc, luciferase readout); assay type: cell-based; conditions: Huh-Luc cells, HCV type 1b replicon, three days incubation, luciferase activity
From the text: The compounds of formula I were examined for activity in the inhibition of HCV RNA replication in a cellular assay aimed at identifying compounds that inhibit a HCV functional cellular replicating cell line, also known as HCV replicons. The cellular assay was based on a bicistronic expression construct, as described by Lohmann et al. (1999), Science vol. 285 pp. 110-113 with modifications described by Krieger et al. (2001), Journal of Virology 75: 4614-4624, in a multi-target screening strategy.
The assay utilized the stably transfected cell line Huh-7 luc/neo (hereafter referred to as Huh-Luc). This cell line harbors an RNA encoding a bicistronic expression construct comprising the wild type NS3-NS5B regions of HCV type 1b translated from an Internal Ribosome Entry Site (IRES) from encephalomyocarditis virus (EMCV), preceded by a reporter portion (FfL-luciferase), and a selectable marker portion (neoR, neomycine phosphotransferase). The construct is bordered by 5′ and 3′ NTRs (non-translated regions) from HCV type 1b. Continued culture of the replicon cells in the presence of G418 (neo^R) is dependent on the replication of the HCV RNA. The stably transfected replicon cells that express HCV RNA, which replicates autonomously and to high levels, encoding inter alia luciferase, were used for screening the antiviral compounds.
The replicon cells were plated in 384 well plates in the presence of the test and control compounds which were added in various concentrations. Following an incubation of three days, HCV replication was measured by assaying luciferase activity (using standard luciferase assay substrates and reagents and a Perkin Elmer ViewLux™ ultraHTS microplate imager). Replicon cells in the control cultures have high luciferase expression in the absence of any inhibitor. The inhibitory activity of the compound on luciferase activity was monitored on the Huh-Luc cells, enabling a dose-response curve for each test compound. EC50 values were then calculated, which value represents the amount of the compound required to decrease the level of detected luciferase activity by 50%, or more specifically, the ability of the genetically linked HCV replicon RNA to replicate.

MT-4 cells = assay: Cellular toxicity in the HIV cell-line (MT-4); assay type: cell-based, human
Experimental: (§2) Compounds of the invention were tested for their potency against wild type human immunodeficiency virus (HIV). Antiviral activity was evaluated using a cellular assay performed according to the following procedure. The human T-cell line MT4 was engineered with Green Fluorescent Protein (GFP) and a HIV-specific promoter, HIV-1 long terminal repeat (LTR). This cell line, designated MT4 LTR-EGFP, can be used for the in vitro evaluation of anti-HIV activity of investigational compounds. In HIV-1 infected cells, the Tat protein is produced, which upregulates the LTR promotor and eventually leads to stimulation of the GFP reporter production, allowing to measure ongoing HIV-infection fluorometrically. Effective concentration values such as 50% effective concentration (EC50) can be determined and are usually expressed in μM. An EC50 value is defined as the concentration of test compound that reduces the fluorescence of HIV-infected cells by 50%. Monitoring of HIV-1 infection was done using a scanning microscope. Image analysis allows very sensitive detection of viral infection. Measurements were done before cell necrosis, which usually takes place about five days after infection, in particular measurements were performed three days after infection. The column IIIB in the table list the EC50 values against the wild type strain IIIB.
(§3) Also the HIV activity is given (EC50 HIV (μM)) and the cellular toxicity in the HIV cell-line (CC50 (μM) (MT-4)).

[2] = test system: wild type human immunodeficiency virus (HIV) strain IIIB; assay: HIV assay in MT4 LTR-EGFP cells; assay type: cell-based, HIV-1; conditions: three days after infection
Experimental: as §2

[3] = Cellular toxicity in Huh7-CMV-Luc replicon assay; assay type: cell-based; conditions: human, Huh7-CMV-Luc cells, three days incubation, Luc activity; read-out: CC50 (μM) (Huh-7)
Experimental: as §1

[4] = Cellular toxicity in the HIV cell-line (MT-4); assay type: cell-based, human; conditions: human
Experimental: as §2, §3

[5] = Human immunodeficiency virus 1, IIIB, 72 h

SMILES | CC50 (Huh7-CMV-Luc cells) | EC50 [1] | CC50 (MT-4 cells) | EC50 [2] | CC50 at 3 days [3] | EC50 ([1]; Hepatitis C virus, Huh-7, 72 h) | CC50 [4] | EC50 [2, 5]
C[C@H](NP(=O)(OC[C@H]1O[C@@H](n2ccc(=O)[nH]c2=O)C2(CC2)[C@@H]1O)Oc1ccc(Cl)cc1)C(=O)OCc1ccccc1 (single isomer, unassigned) [Compound 7b] | > 98 µM | 3.4 µM | > 90 µM | > 98 µM | – | – | – | –
CCCCOC(=O)[C@H](C)NP(=O)(OC[C@H]1O[C@@H](n2ccc(=O)[nH]c2=O)C2(CC2)[C@@H]1O)Oc1cccc2ccccc12 (some centres unmarked) [Compound 15] | – | – | – | – | > 98 µM | 3.6 µM | > 60 µM | > 60 µM
C[C@H](NP(=O)(OC[C@H]1O[C@@H](n2ccc(=O)[nH]c2=O)C2(CC2)[C@@H]1O)Oc1ccc2c(ccn2C(=O)OC(C)(C)C)c1)C(=O)OCc1ccccc1 (some centres unmarked) [Compound 16] | – | – | – | – | > 32 µM | 4.2 µM | > 32 µM | > 98 µM
CCOC(=O)[C@H](Cc1ccccc1)NP(=O)(OC[C@H]1O[C@@H](n2ccc(=O)[nH]c2=O)C2(CC2)[C@@H]1O)Oc1ccccc1 (some centres unmarked) [Compound 17] | – | – | – | – | > 98 µM | 4.4 µM | > 98 µM | > 98 µM
C=CCCCCOC(=O)[C@H](C)NP(=O)(OC[C@H]1O[C@@H](n2ccc(=O)[nH]c2=O)C2(CC2)[C@@H]1O)Oc1ccc(CC=C)cc1OC (some centres unmarked) [Compound 18] | – | – | – | – | > 98 µM | 5.1 µM | > 64 µM | > 98 µM
C[C@H](NP(=O)(OC[C@H]1O[C@@H](n2ccc(=O)[nH]c2=O)C2(CC2)[C@@H]1O)Oc1ccc(C(C)(C)C)cc1)C(=O)OCc1ccccc1 (some centres unmarked) [Compound 19] | – | – | – | – | > 32 µM | 7.2 µM | > 32 µM | > 32 µM
C[C@H](NP(=O)(OC[C@H]1O[C@@H](n2ccc(=O)[nH]c2=O)C2(CC2)[C@@H]1O)Oc1ccc2[nH]ccc2c1)C(=O)OCc1ccccc1 (some centres unmarked) [Compound 20] | – | – | – | – | > 32 µM | 7.6 µM | > 98 µM | > 98 µM
CC[C@H](NP(=O)(OC[C@H]1O[C@@H](n2ccc(=O)[nH]c2=O)C2(CC2)[C@@H]1O)Oc1ccccc1)C(=O)OCc1ccccc1 (some centres unmarked) [Compound 21] | – | – | – | – | > 98 µM | 7.8 µM | > 80 µM | > 98 µM
Cc1ccc(C(C)C)c(OP(=O)(N[C@@H](C)C(=O)OCc2ccccc2)OC[C@H]2O[C@@H](n3ccc(=O)[nH]c3=O)C3(CC3)[C@@H]2O)c1 (some centres unmarked) [Compound 22] | – | – | – | – | > 32 µM | 9.2 µM | 2.1 µM | 1.65 µM
CCCCCCCCOC(=O)[C@H](C)NP(=O)(OC[C@H]1O[C@@H](n2ccc(=O)[nH]c2=O)C2(CC2)[C@@H]1O)Oc1ccc(Cl)cc1 (some centres unmarked) [Compound 23] | – | – | – | – | > 32 µM | 11.2 µM | > 30 µM | > 98 µM
CCC(C)OC(=O)[C@H](C)NP(=O)(OC[C@H]1O[C@@H](n2ccc(=O)[nH]c2=O)C2(CC2)[C@@H]1O)Oc1ccccc1 (some centres unmarked) [Compound 24] | – | – | – | – | > 98 µM | 12.4 µM | > 98 µM | > 98 µM
Cc1ccc(C(C)C)cc1OP(=O)(N[C@@H](C)C(=O)OCc1ccccc1)OC[C@H]1O[C@@H](n2ccc(=O)[nH]c2=O)C2(CC2)[C@@H]1O (some centres unmarked) [Compound 25] | – | – | – | – | > 32 µM | 23.1 µM | 23 µM | > 98 µM
CCOC(=O)C1(NP(=O)(OC[C@H]2O[C@@H](n3ccc(=O)[nH]c3=O)C3(CC3)[C@@H]2O)Oc2ccc(Cl)cc2)CCC1 (some centres unmarked) [Compound 26] | – | – | – | – | > 98 µM | 73.7 µM | > 98 µM | > 98 µM
COC(=O)C(C)(C)NP(=O)(OC[C@H]1O[C@@H](n2ccc(=O)[nH]c2=O)C2(CC2)[C@@H]1O)Oc1ccccc1 (some centres unmarked) [Compound 27] | – | – | – | – | > 98 µM | 91.4 µM | > 98 µM | > 98 µM
CC(C)OC(=O)C(C)(C)NP(=O)(OC[C@H]1O[C@@H](n2ccc(=O)[nH]c2=O)C2(CC2)[C@@H]1O)Oc1ccccc1 (some centres unmarked) [Compound 28] | – | – | – | – | > 98 µM | > 98 µM | > 98 µM | > 98 µM
CCOC(=O)C1(NP(=O)(OC[C@H]2O[C@@H](n3ccc(=O)[nH]c3=O)C3(CC3)[C@@H]2O)Oc2ccccc2)CC1 (some centres unmarked) [Compound 29] | – | – | – | – | > 98 µM | > 98 µM | > 98 µM | > 98 µM
C[C@H](NP(=O)(OC[C@H]1O[C@@H](n2ccc(=O)[nH]c2=O)C2(CC2)[C@@H]1O)Oc1ccccc1)C(=O)OC(C)(C)C (some centres unmarked) [Compound 30] | – | – | – | – | > 98 µM | > 98 µM | > 98 µM | > 98 µM
CC[C@H](NP(=O)(OC[C@H]1O[C@@H](n2ccc(=O)[nH]c2=O)C2(CC2)[C@@H]1O)Oc1ccccc1)C(=O)OC(C)C (some centres unmarked) [Compound 31] | – | – | – | – | > 98 µM | > 98 µM | > 98 µM | > 95 µM
CCOC(=O)C1(NP(=O)(OC[C@H]2O[C@@H](n3ccc(=O)[nH]c3=O)C3(CC3)[C@@H]2O)Oc2ccccc2)CCC1 (some centres unmarked) [Compound 32] | – | – | – | – | > 98 µM | > 98 µM | > 98 µM | > 98 µM
CCOC(=O)C1(NP(=O)(OC[C@H]2O[C@@H](n3ccc(=O)[nH]c3=O)C3(CC3)[C@@H]2O)Oc2ccc(Cl)cc2)CC1 (some centres unmarked) [Compound 33] | – | – | – | – | > 98 µM | > 98 µM | > 98 µM | > 98 µM
